Experimental findings from ChEMBL document CHEMBL3045281, “Design, synthesis, and biological evaluation of new 3-hydroxy-2-oxo-3-trifluoromethylindole as potential HIV-1 reverse transcriptase inhibitors” (Med Chem Res, 2006) are described below.

Series [1] can be described thus: Cytotoxicity against Chlorocebus aethiops (African green monkey) Vero cells after 72 hr by trypan blue assay. In kind it is cell-based. The note with it: chlorocebus sabaeus.
Series [2] addresses Human immunodeficiency virus type 1 reverse transcriptase (Human immunodeficiency virus 1, UniProt Q72547). The experiment in a line: Inhibition of RNA-dependent DNA polymerase activity of Human immunodeficiency virus 1 recombinant reverse transcriptase expressed in Escherichia coli using poly(rA)oligo(dT) template primer after 30 min.

As a reminder, the CC50 is the concentration at which the toxic effect on the cells reaches its halfway point. A high value points to better tolerance by the cells. One may read the IC50 as the point on the concentration scale where inhibition reaches its midpoint.

Some results are limits rather than exact numbers.

For `CN1C(=O)C(O)(C(F)(F)F)c2cc(Br)ccc21` (stereo not given), the CC50 at 72 h in series [1] is above 250 µM. The concentration for half-maximal inhibition (IC50) in series [2] is 3.61 µM.

In the case of `CC(=O)N1C(=O)C(O)(C(F)(F)F)c2cc(Cl)ccc21` (stereo not given), in series [1], the CC50 at 72 h was above 360 µM. The IC50 in series [2] was 3.41 µM.

`O=C1Nc2ccccc2C1(O)C(F)(F)F` (stereo not given) displayed a CC50 at 72 h in series [1] above 650 µM. Also, the IC50 in series [2] worked out at 6.07 µM.

Regarding `O=C1Nc2ccc(Cl)cc2C1(O)C(F)(F)F` (stereo not given), the cytotoxic concentration (CC50) at 72 h in series [1] was above 700 µM. Further, the IC50 in series [2] came to 7.1 µM.

`CC(=O)N1C(=O)C(O)(C(F)(F)F)c2cc(C)ccc21` (stereo not given) yielded a CC50 at 72 h in series [1] above 650 µM. Further, the IC50 in series [2] amounted to 8.37 µM.
